Tested on: Kv3.1 α-subunit mRNA
Assay: Experiment 1: in situ hybridization of Kv3.1 α-subunit mRNA in brain, chronic PCP rat model of schizophrenia with antipsychotic co-treatment
Type: in vivo

Cc1cc2c(s1)Nc1ccccc1N=C2N1CCN(C)CC1 [Olanzapine, olanzapine]
Kv3.1 α-subunit mRNA expression (ACg, PCP + drug 0.3 mg/kg/day): 15.83 ± 0.73 PSL/mm^2 | Kv3.1 α-subunit mRNA expression (ACg, PCP + drug 1 mg/kg/day): 14.83 ± 1.00 PSL/mm^2 | Kv3.1 α-subunit mRNA expression (ACg, PCP + drug 3 mg/kg/day): 16.31 ± 0.40 PSL/mm^2 | Kv3.1 α-subunit mRNA expression (ACg, PCP + drug 10 mg/kg/day): 15.03 ± 0.72 PSL/mm^2 | Kv3.1 α-subunit mRNA expression (AcbC, PCP + drug 0.3 mg/kg/day): 8.59 ± 0.58 PSL/mm^2 | Kv3.1 α-subunit mRNA expression (AcbC, PCP + drug 1 mg/kg/day): 8.12 ± 0.67 PSL/mm^2 | Kv3.1 α-subunit mRNA expression (AcbC, PCP + drug 3 mg/kg/day): 8.55 ± 0.25 PSL/mm^2 | Kv3.1 α-subunit mRNA expression (AcbC, PCP + drug 10 mg/kg/day): 8.27 ± 0.31 PSL/mm^2 | Kv3.1 α-subunit mRNA expression (AcbS, PCP + drug 0.3 mg/kg/day): 11.42 ± 0.73 PSL/mm^2 | Kv3.1 α-subunit mRNA expression (AcbS, PCP + drug 1 mg/kg/day): 10.43 ± 0.56 PSL/mm^2 | Kv3.1 α-subunit mRNA expression (AcbS, PCP + drug 3 mg/kg/day): 11.62 ± 0.84 PSL/mm^2 | Kv3.1 α-subunit mRNA expression (AcbS, PCP + drug 10 mg/kg/day): 11.95 ± 1.02 PSL/mm^2 | Kv3.1 α-subunit mRNA expression (Au1, PCP + drug 0.3 mg/kg/day): 18.60 ± 1.75 PSL/mm^2 | Kv3.1 α-subunit mRNA expression (Au1, PCP + drug 1 mg/kg/day): 18.68 ± 0.80 PSL/mm^2 | Kv3.1 α-subunit mRNA expression (Au1, PCP + drug 3 mg/kg/day): 17.42 ± 1.46 PSL/mm^2 | Kv3.1 α-subunit mRNA expression (Au1, PCP + drug 10 mg/kg/day): 16.91 ± 0.86 PSL/mm^2 | Kv3.1 α-subunit mRNA expression (CA1pd, PCP + drug 0.3 mg/kg/day): 19.98 ± 1.59 PSL/mm^2 | Kv3.1 α-subunit mRNA expression (CA1pd, PCP + drug 1 mg/kg/day): 19.14 ± 2.06 PSL/mm^2 | Kv3.1 α-subunit mRNA expression (CA1pd, PCP + drug 3 mg/kg/day): 18.37 ± 1.54 PSL/mm^2 | Kv3.1 α-subunit mRNA expression (CA1pd, PCP + drug 10 mg/kg/day): 20.15 ± 1.22 PSL/mm^2 | Kv3.1 α-subunit mRNA expression (CA2pd, PCP + drug 0.3 mg/kg/day): 21.36 ± 2.52 PSL/mm^2 | Kv3.1 α-subunit mRNA expression (CA2pd, PCP + drug 1 mg/kg/day): 17.72 ± 1.86 PSL/mm^2 | Kv3.1 α-subunit mRNA expression (CA2pd, PCP + drug 10 mg/kg/day): 20.59 ± 1.35 PSL/mm^2 | Kv3.1 α-subunit mRNA expression (CA3pd, PCP + drug 0.3 mg/kg/day): 33.71 ± 3.48 PSL/mm^2 | Kv3.1 α-subunit mRNA expression (CA3pd, PCP + drug 1 mg/kg/day): 30.50 ± 1.94 PSL/mm^2 | Kv3.1 α-subunit mRNA expression (CA3pd, PCP + drug 3 mg/kg/day): 33.46 ± 2.04 PSL/mm^2 | Kv3.1 α-subunit mRNA expression (CA3pd, PCP + drug 10 mg/kg/day): 32.81 ± 1.82 PSL/mm^2 | Kv3.1 α-subunit mRNA expression (DGgd, PCP + drug 0.3 mg/kg/day): 35.22 ± 1.16 PSL/mm^2 | Kv3.1 α-subunit mRNA expression (DGgd, PCP + drug 1 mg/kg/day): 33.04 PSL/mm^2 | Kv3.1 α-subunit mRNA expression (DGgd, PCP + drug 3 mg/kg/day): 36.51 ± 1.07 PSL/mm^2 | Kv3.1 α-subunit mRNA expression (DGgd, PCP + drug 10 mg/kg/day): 38.16 ± 1.10 PSL/mm^2 | Kv3.1 α-subunit mRNA expression (IL, PCP + drug 0.3 mg/kg/day): 12.00 ± 0.65 PSL/mm^2 | Kv3.1 α-subunit mRNA expression (IL, PCP + drug 1 mg/kg/day): 11.27 ± 1.08 PSL/mm^2 | Kv3.1 α-subunit mRNA expression (IL, PCP + drug 3 mg/kg/day): 11.40 ± 0.41 PSL/mm^2 | Kv3.1 α-subunit mRNA expression (IL, PCP + drug 10 mg/kg/day): 12.15 ± 0.62 PSL/mm^2 | Kv3.1 α-subunit mRNA expression (IO, PCP + drug 0.3 mg/kg/day): 15.50 ± 0.51 PSL/mm^2 | Kv3.1 α-subunit mRNA expression (IO, PCP + drug 1 mg/kg/day): 16.18 ± 0.32 PSL/mm^2 | Kv3.1 α-subunit mRNA expression (IO, PCP + drug 3 mg/kg/day): 16.83 ± 0.79 PSL/mm^2 | Kv3.1 α-subunit mRNA expression (IO, PCP + drug 10 mg/kg/day): 17.74 ± 0.37 PSL/mm^2 | Kv3.1 α-subunit mRNA expression (M1, PCP + drug 0.3 mg/kg/day): 15.83 ± 0.69 PSL/mm^2 | Kv3.1 α-subunit mRNA expression (M1, PCP + drug 1 mg/kg/day): 16.17 ± 1.27 PSL/mm^2 | Kv3.1 α-subunit mRNA expression (M1, PCP + drug 3 mg/kg/day): 16.17 ± 0.79 PSL/mm^2 | Kv3.1 α-subunit mRNA expression (M1, PCP + drug 10 mg/kg/day): 16.27 ± 0.37 PSL/mm^2 | Kv3.1 α-subunit mRNA expression (M2, PCP + drug 3 mg/kg/day): 14.48 ± 0.90 PSL/mm^2 | Kv3.1 α-subunit mRNA expression (MG, PCP + drug 0.3 mg/kg/day): 26.64 ± 2.22 PSL/mm^2 | Kv3.1 α-subunit mRNA expression (MM, PCP + drug 10 mg/kg/day): 4.69 ± 2.24 PSL/mm^2 | Kv3.1 α-subunit mRNA expression (Pir, PCP + drug 0.3 mg/kg/day): 37.73 ± 1.18 PSL/mm^2 | Kv3.1 α-subunit mRNA expression (Pir, PCP + drug 1 mg/kg/day): 36.82 ± 0.51 PSL/mm^2 | Kv3.1 α-subunit mRNA expression (Pir, PCP + drug 3 mg/kg/day): 43.78 ± 1.20 PSL/mm^2 | Kv3.1 α-subunit mRNA expression (Pir, PCP + drug 10 mg/kg/day): 40.66 ± 2.21 PSL/mm^2 | Kv3.1 α-subunit mRNA expression (RSa, PCP + drug 0.3 mg/kg/day): 16.53 ± 1.13 PSL/mm^2 | Kv3.1 α-subunit mRNA expression (RSa, PCP + drug 1 mg/kg/day): 16.92 ± 0.74 PSL/mm^2 | Kv3.1 α-subunit mRNA expression (RSa, PCP + drug 3 mg/kg/day): 18.21 ± 1.15 PSL/mm^2 | Kv3.1 α-subunit mRNA expression (RSa, PCP + drug 10 mg/kg/day): 18.77 ± 1.07 PSL/mm^2 | Kv3.1 α-subunit mRNA expression (RSg, PCP + drug 0.3 mg/kg/day): 19.48 ± 0.72 PSL/mm^2 | Kv3.1 α-subunit mRNA expression (RSg, PCP + drug 1 mg/kg/day): 19.43 ± 1.20 PSL/mm^2 | Kv3.1 α-subunit mRNA expression (RSg, PCP + drug 3 mg/kg/day): 20.96 ± 1.08 PSL/mm^2 | Kv3.1 α-subunit mRNA expression (RSg, PCP + drug 10 mg/kg/day): 19.59 ± 0.92 PSL/mm^2 | Kv3.1 α-subunit mRNA expression (VMStr, PCP + drug 3 mg/kg/day): 7.52 PSL/mm^2 | Kv3.1 α-subunit mRNA expression (VMStr, PCP + drug 10 mg/kg/day): 5.99 ± 0.28 PSL/mm^2 | Kv3.1 α-subunit mRNA expression (VO, PCP + drug 0.3 mg/kg/day): 19.03 ± 1.00 PSL/mm^2 | Kv3.1 α-subunit mRNA expression (VO, PCP + drug 1 mg/kg/day): 18.35 ± 1.04 PSL/mm^2 | Kv3.1 α-subunit mRNA expression (VO, PCP + drug 3 mg/kg/day): 18.96 ± 0.86 PSL/mm^2 | Kv3.1 α-subunit mRNA expression (VO, PCP + drug 10 mg/kg/day): 19.88 ± 0.58 PSL/mm^2 | Kv3.1 α-subunit mRNA expression (dRt, PCP + drug 0.3 mg/kg/day): 50.99 ± 2.22 PSL/mm^2 | Kv3.1 α-subunit mRNA expression (dRt, PCP + drug 1 mg/kg/day): 50.92 ± 3.80 PSL/mm^2 | Kv3.1 α-subunit mRNA expression (dRt, PCP + drug 3 mg/kg/day): 52.87 ± 1.95 PSL/mm^2 | Kv3.1 α-subunit mRNA expression (dRt, PCP + drug 10 mg/kg/day): 52.42 ± 1.19 PSL/mm^2 | Kv3.1 α-subunit mRNA expression (vRt, PCP + drug 0.3 mg/kg/day): 54.57 ± 3.12 PSL/mm^2 | Kv3.1 α-subunit mRNA expression (vRt, PCP + drug 1 mg/kg/day): 46.70 ± 3.99 PSL/mm^2 | Kv3.1 α-subunit mRNA expression (vRt, PCP + drug 3 mg/kg/day): 42.97 ± 2.22 PSL/mm^2 | Kv3.1 α-subunit mRNA expression (vRt, PCP + drug 10 mg/kg/day): 53.69 ± 2.07 PSL/mm^2
